Source: patent publication US10294229B2, “Heteroaryl substituted aminopyridine compounds” (BRISTOL-MYERS SQUIBB COMPANY, priority 2015, dated 2019)

What was measured:
IRAK4 = IRAK4 (Homo sapiens (Human), UniProt Q9NWZ3); assay: IRAK4 Inhibition Assay; format: biochemical; conditions: ATP 500 μM; IRAK4 0.6 nM
How it was run: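 Mobility-shift readout: phosphorylated and unphosphorylated fluorescent peptide (1.5 μM) resolved by electrophoresis after a 60 min room-temperature reaction stopped with EDTA. Reaction holds 0.6 nM IRAK4, 500 μM ATP and 1.6% DMSO in HEPES pH 7.2/MgCl2/Brij 35/DTT buffer; percent inhibition set against vehicle and no-enzyme controls.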

[1] = Caco-2 Permeability Assay; format: in vitro ADME; conditions: human, Caco-2, test compound 3 μM
How it was run: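 Bidirectional permeability measured over 2 h at 37° C, compound dosed at 3 μM in the donor compartment (apical for absorptive, basolateral for secretive) with plain buffer as receiver.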

[2] = system: Human whole blood stimulated with a TLR2 agonist (lipoteichoic acid), IL-6 levels; assay: IRAK4 Whole Blood Assay; format: cell-based; conditions: Homo sapiens, lipoteichoic acid 10 μg/mL
How it was run: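 ACD-A-anticoagulated human whole blood was preincubated with compounds for 60 min at 37 °C under 5% CO2. It was then stimulated with 10 μg/mL lipoteichoic acid (final) in RPMI for 5 h. IL-6 in plasma supernatants was measured by flow cytometry bead assay.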

Chain of IRAK4 (Q9NWZ3 whole entry, species assumed): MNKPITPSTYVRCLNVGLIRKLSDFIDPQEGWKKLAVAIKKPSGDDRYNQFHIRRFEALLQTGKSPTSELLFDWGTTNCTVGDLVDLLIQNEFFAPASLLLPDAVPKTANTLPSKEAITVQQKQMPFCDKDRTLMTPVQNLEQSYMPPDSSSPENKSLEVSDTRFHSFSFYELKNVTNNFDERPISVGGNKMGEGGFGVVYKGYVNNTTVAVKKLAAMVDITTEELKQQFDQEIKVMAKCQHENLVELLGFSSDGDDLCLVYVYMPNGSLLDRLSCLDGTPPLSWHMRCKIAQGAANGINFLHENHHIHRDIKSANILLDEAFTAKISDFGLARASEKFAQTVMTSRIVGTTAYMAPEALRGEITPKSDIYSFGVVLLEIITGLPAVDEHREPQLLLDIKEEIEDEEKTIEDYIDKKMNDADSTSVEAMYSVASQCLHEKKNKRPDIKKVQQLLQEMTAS

Structure (SMILES) | IC50 (IRAK4) [nM] | Papp at 2 h, 3 µM [1] [×10⁻⁶ cm/s] | EC50 [2] [nM]
CC(C)Nc1cc(-n2ncc3cc(C#N)cnc32)ncc1-n1cc(CCC(C)(C)OC(=O)C2CC2)nn1 [Example 382, 4-(1-(6-(5-cyano-1H-pyrazolo[3,4-b]pyridin-1-yl)-4-(isopropylamino)pyridin-3-yl)-1H-1,2,3-triazol-4-yl)-2-methylbutan-2-yl cyclopropanecarboxylate] | 2 | 24.8 | 460
CC(C)Nc1cc(-n2ncc3cc(C#N)cnc32)ncc1-n1cc(CCC(C)(C)OC(=O)CN(C)C)nn1 [Example 384, 4-(1-(6-(5-cyano-1H-pyrazolo[3,4-b]pyridin-1-yl)-4-(isopropylamino)pyridin-3-yl)-1H-1,2,3-triazol-4-yl)-2-methylbutan-2-yl dimethylglycinate] | 2 | 13.1 | 250
CC(C)Nc1cc(-n2ncc3cc(C#N)cnc32)ncc1-n1cc(C2CCN(C(=O)C(F)(F)F)CC2)nn1 [Example 386, 1-(4-(isopropylamino)-5-(4-(1-(2,2,2-trifluoroacetyl)piperidin-4-yl)-1H-1,2,3-triazol-1-yl)pyridin-2-yl)-1H-pyrazolo[3,4-b]pyridine-5-carbonitrile] | 4 | 24.8 | 200
CC(C)Nc1cc(-n2ncc3cc(C#N)cnc32)ncc1-n1cc(CC[C@](C)(O)CO)nn1 [Example 387, (S)-1-(5-(4-(3,4-dihydroxy-3-methylbutyl)-1H-1,2,3-triazol-1-yl)-4-(isopropylamino)pyridin-2-yl)-1H-pyrazolo[3,4-b]pyridine-5-carbonitrile] | 8 | < 1.5 | 240
CCCNc1cc(-n2ncc3cc(C#N)cnc32)ncc1-n1cc(CCC(C)(C)O)nn1 [Example 389, 1-(5-(4-(3-hydroxy-3-methylbutyl)-1H-1,2,3-triazol-1-yl)-4-(propylamino)pyridin-2-yl)-1H-pyrazolo[3,4-b]pyridine-5-carbonitrile] | 14 | 30.2 | 310
CC(C)Nc1cc(-n2ncc3cc(C#N)cnc32)ncc1-n1cc(CCC(C)(C)O)cn1 [Example 390, 1-(5-(4-(3-hydroxy-3-methylbutyl)-1H-pyrazol-1-yl)-4-(isopropylamino)pyridin-2-yl)-1H-pyrazolo[3,4-b]pyridine-5-carbonitrile] | 8 | 37.1 | 270
CC(C)Nc1cc(-n2ncc3cc(C#N)cnc32)ncc1-c1cn([C@H]2CC[C@H](N)CC2)nn1 [Example 392, 1-(5-(1-((1r,4r)-4-aminocyclohexyl)-1H-1,2,3-triazol-4-yl)-4-(isopropylamino)pyridin-2-yl)-1H-pyrazolo[3,4-b]pyridine-5-carbonitrile] | 3 | < 1.5 | 440
COC(=O)N[C@H]1CC[C@H](n2cc(-c3cnc(-n4ncc5cc(C#N)cnc54)cc3NC(C)C)nn2)CC1 [Example 393, methyl ((1r,4r)-4-(4-(6-(5-cyano-1H-pyrazolo[3,4-b]pyridin-1-yl)-4-(isopropylamino)pyridin-3-yl)-1H-1,2,3-triazol-1-yl)cyclohexyl)carbamate] | 2 | 10.6 | 330
CC(C)Nc1cc(-n2ncc3cc(C#N)cnc32)ncc1-c1cn([C@H]2CC[C@H](NCC(F)F)CC2)nn1 [Example 394, 1-(5-(1-((1r,4r)-4-((2,2-difluoroethyl)amino)cyclohexyl)-1H-1,2,3-triazol-4-yl)-4-(isopropylamino)pyridin-2-yl)-1H-pyrazolo[3,4-b]pyridine-5-carbonitrile] | 2 | 9.1 | 250
CCOC(=O)N[C@H]1CC[C@H](n2cc(-c3cnc(-n4ncc5cc(C#N)cnc54)cc3NC(C)C)nn2)CC1 [Example 395, ethyl ((1r,4r)-4-(4-(6-(5-cyano-1H-pyrazolo[3,4-b]pyridin-1-yl)-4-(isopropylamino)pyridin-3-yl)-1H-1,2,3-triazol-1-yl)cyclohexyl)carbamate] | 1 | 9.4 | 290
CC(=O)N1CC(c2cc(-c3cnc(-n4ncc5cc(C#N)cnc54)cc3NC(C)C)on2)C1 [Example 398, 1-(5-(3-(1-acetylazetidin-3-yl)isoxazol-5-yl)-4-(isopropylamino)pyridin-2-yl)-1H-pyrazolo[3,4-b]pyridine-5-carbonitrile] | 4 | 6.9 | 300
CC(C)Nc1cc(-n2ncc3cc(C#N)cnc32)ncc1-c1cc(C(CO)CO)no1 [Example 399, 1-(5-(3-(1,3-dihydroxypropan-2-yl)isoxazol-5-yl)-4-(isopropylamino)pyridin-2-yl)-1H-pyrazolo[3,4-b]pyridine-5-carbonitrile] | 10 | < 1.5 | 140

Other lines, results leading:

IC50 (IRAK4) [nM] | Papp at 2 h, 3 µM [1] [×10⁻⁶ cm/s] | EC50 [2] [nM] | Structure (SMILES)
4 | 28 | 380 | COC(=O)N1CC(c2cc(-c3cnc(-n4ncc5cc(C#N)cnc54)cc3NC(C)C)on2)C1 [Example 401, methyl 3-(5-(6-(5-cyano-1H-pyrazolo[3,4-b]pyridin-1-yl)-4-(isopropylamino)pyridin-3-yl)isoxazol-3-yl)azetidine-1-carboxylate]
2 | 19.2 | 250 | CC(=O)N1CCC(c2cc(-c3cnc(-n4ncc5cc(C#N)cnc54)cc3NC(C)C)on2)CC1 [Example 402, 1-(5-(3-(1-acetylpiperidin-4-yl)isoxazol-5-yl)-4-(isopropylamino)pyridin-2-yl)-1H-pyrazolo[3,4-b]pyridine-5-carbonitrile]
4 | < 1.5 | 230 | CC(C)Nc1cc(-n2ncc3cc(C#N)cnc32)ncc1-c1cc(C2CCNCC2)no1 [Example 403, 1-(4-(isopropylamino)-5-(3-(piperidin-4-yl)isoxazol-5-yl)pyridin-2-yl)-1H-pyrazolo[3,4-b]pyridine-5-carbonitrile]
3 | < 1.5 | 230 | CC(C)Nc1cc(-n2ncc3cc(C#N)cnc32)ncc1-c1cc([C@H]2CCNC2)no1 [Example 404, (S)-1-(4-(isopropylamino)-5-(3-(pyrrolidin-3-yl)isoxazol-5-yl)pyridin-2-yl)-1H-pyrazolo[3,4-b]pyridine-5-carbonitrile]
4 | 12.5 | 260 | CC(=O)N1CC[C@H](c2cc(-c3cnc(-n4ncc5cc(C#N)cnc54)cc3NC(C)C)on2)C1 [Example 405, (S)-1-(5-(3-(1-acetylpyrrolidin-3-yl)isoxazol-5-yl)-4-(isopropylamino)pyridin-2-yl)-1H-pyrazolo[3,4-b]pyridine-5-carbonitrile]
3 | 16.3 | 470 | CC(=O)N1CC[C@@H](c2cc(-c3cnc(-n4ncc5cc(C#N)cnc54)cc3NC(C)C)on2)C1 [Example 406, (R)-1-(5-(3-(1-acetylpyrrolidin-3-yl)isoxazol-5-yl)-4-(isopropylamino)pyridin-2-yl)-1H-pyrazolo [3,4-b]pyridine-5-carbonitrile]
